# Patent US11051777B2, “Imaging neurological disease” (GE Healthcare Limited, priority 2013, dated 2021)
# Where “and” joins values, the source holds several entries; their conditions need not be identical. Equal entries are not always repeated.
# Legend:
# Format in all cases: in vivo
# dopamine transporter [1] = target: T1, dopamine transporter (Homo sapiens, UniProt Q01959); assay: Striatal binding ratio (SBR) from DaTSCAN images of normal subjects, ENCDAT database; conditions: mean ±1 SD
# T1 construct: from tissue; host or cells: striatum of living normal human subjects (in vivo SPECT imaging, ENCDAT and PPMI databases)
# Description: The European Association of Nuclear Medicine RESEARCH4LIFE© initiative (“EARL”) has been compiling a database of DaTSCAN images of normal human subjects since 2007 (see http://earl.eanm.org/cms/website.php?id=/en/projects/enc-dat.htm). The ENCDAT database includes 150 normal subjects—with data from a range of camera types. SBR was calculated for the 150 normal subjects (Group A):
# [formula] • where: • SBR=specific binding ratio or striatum binding ratio, • ROI=region of interest. Brain imaging data for n=37 normal subjects acquired on GE cameras in the ENCDAT database was used for the calculation of SBR (Group B). SBR for an illustrative patient from the ENCDAT database is also shown: […]
# dopamine transporter [2] = target: T1, dopamine transporter; assay: Striatum right:left ratio from DaTSCAN SBR data of normal subjects, ENCDAT database
# Text: Using the method of the present invention, the data from Example 1 was used to calculate a striatum right:left ratio:
# Table 3 below uses SBR data for normal subjects from the ENC DAT database. Three subjects from each of five different sites are shown, but the overall average is based on data from 11 sites: […]
# dopamine transporter [3] = target: T1, dopamine transporter; assay: Normal database (PPMI, ENCDAT) DaTSCAN scans, SBR method averaged per decade of life; conditions: normal subjects
# Description: Two databases of scans of DaTSCAN™ (GE Healthcare Ltd) normal human subjects were evaluated using: • (i) the SBR method of the prior art (see Example 1), with the occipital cortex as the reference region; • (ii) the L/R ratio method of the present invention. The PPMI database was of 122 subjects (age range 31-84; 62% male 38% female). The ENCDAT database was of 122 subjects (age range 20-82; 52% male 48% female). The data from all subjects in each decade of life (20 s, 30 s etc) were averaged.
# dopamine transporter [4] = target: T1, dopamine transporter; assay: Patient classification from Datscan clinical trial data using SBR only, versus clinical diagnosis
# Description: The data from two GE Healthcare Ltd clinical trials of Datscan™: • (i) comparing PD and ET; • (ii) clinically uncertain PD; 104 patients in total were analysed using SBR calculation only. Each determination was compared with the patient determination based on clinical symptoms.
# This gives a sensitivity of 71%, specificity of 96% and accuracy of 82% for the SBR technique. The clinical diagnosis was assumed to be the ‘true’ diagnosis, and sensitivity and specificity can then be calculated. Sensitivity=100×True Positives/(True Positives+False Negatives)=100×42/59=71%. Specificity=100×True Negatives/(True Negatives+False Positives)=100×43/45=96%. Accuracy=100×(True Positives+True Negatives)/Population=100×(42+43)/104=82%.
# dopamine transporter [5] = target: T1, dopamine transporter; assay: Patient classification from Datscan clinical trial data using SBR plus L/R asymmetry, versus clinical diagnosis
# Description: The 104 patient data set from Example 4 was analysed using SBR together with the L/R asymmetry of the present invention.
# [6] = Normal A: 150 normal subjects, range of camera types
# [7] = Normal B: n=37 normal subjects, GE cameras
# [8] = WHOLE mean, overall average of 11 sites
# [9] = individual normal subjects, three per site, sites 1-5
# [10] = SBR technique, clinical diagnosis as truth
# [11] = 104 patients, SBR with L/R asymmetry
# [12] = SBR plus asymmetry, clinical diagnosis as truth
# T1 sequence (Q01959 whole entry): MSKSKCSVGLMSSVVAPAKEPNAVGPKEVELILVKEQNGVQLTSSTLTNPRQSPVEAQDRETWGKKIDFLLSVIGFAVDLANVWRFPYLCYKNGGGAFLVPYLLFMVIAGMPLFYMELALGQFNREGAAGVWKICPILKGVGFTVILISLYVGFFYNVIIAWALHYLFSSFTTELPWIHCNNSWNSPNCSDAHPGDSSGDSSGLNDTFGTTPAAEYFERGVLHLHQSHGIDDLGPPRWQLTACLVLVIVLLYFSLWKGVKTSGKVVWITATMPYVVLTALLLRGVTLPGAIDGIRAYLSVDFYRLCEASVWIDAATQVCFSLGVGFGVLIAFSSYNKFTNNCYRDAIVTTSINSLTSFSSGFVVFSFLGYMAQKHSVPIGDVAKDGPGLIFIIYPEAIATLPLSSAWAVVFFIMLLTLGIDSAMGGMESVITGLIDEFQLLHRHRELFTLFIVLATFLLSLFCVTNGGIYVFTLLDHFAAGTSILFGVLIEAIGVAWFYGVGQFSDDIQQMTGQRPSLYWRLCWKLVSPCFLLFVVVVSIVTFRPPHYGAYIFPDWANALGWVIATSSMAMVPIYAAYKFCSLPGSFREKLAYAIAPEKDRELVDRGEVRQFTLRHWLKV
smiles,measurement,setting,value
"COC(=O)[C@H]1[C@@H](c2ccc([123I])cc2)C[C@@H]2CC[C@H]1N2CCCF [DaTSCAN, ^123I-ioflupane]",SBR Striatum left,dopamine transporter [1]; [6],2.88 ± 0.69 and 2.88 +/− 0.69
same,SBR Striatum right,dopamine transporter [1]; [6],2.88 ± 0.65 and 2.88 +/− 0.65
same,SBR Striatum left,dopamine transporter [1]; [7],2.42 +/− 0.63
same,SBR Striatum right,dopamine transporter [1]; [7],2.41 +/− 0.63
same,"SBR left, normal range",dopamine transporter [2]; Normal range (+/-1 SD),1.79-3.05
same,"SBR right, normal range",dopamine transporter [2]; Normal range (+/-1 SD),1.78-3.04
same,"Striatum Right:left, normal range",dopamine transporter [2]; Normal range (+/-1 SD),0.96-1.04
same,Striatum Right:left,"dopamine transporter [2]; Normal subjects, mean +/-1 SD",1.00 +/− 0.04
same,Anterior putamen R:L ratio,dopamine transporter [2]; [8],1.00
same,Caudate R:L ratio,dopamine transporter [2]; [8],0.99
same,Posterior Putamen R:L ratio,dopamine transporter [2]; [8],1.01
same,Putamen R:L ratio,dopamine transporter [2]; [8],1.01
same,SBR Striatum L,dopamine transporter [2]; [8],2.88
same,SBR Striatum R,dopamine transporter [2]; [8],2.88
same,Striatum R:L ratio,dopamine transporter [2]; [8],1.00
same,Anterior putamen R:L ratio,dopamine transporter [2]; [9],1.03 (2×) and 1.00 (4×) and 0.91 and 0.98 and 0.97 and 1.01 (3×) and 1.06 and 0.99 and 0.96
same,Caudate R:L ratio,dopamine transporter [2]; [9],0.98 and 1.02 and 0.97 and 1.05 (3×) and 0.89 and 1.03 (3×) and 1.15 and 1.11 and 1.07 and 0.94 and 1.01
same,Posterior Putamen R:L ratio,dopamine transporter [2]; [9],1.03 and 1.08 and 1.18 (2×) and 1.00 and 1.05 and 0.99 and 1.20 and 1.07 (3×) and 1.02 and 1.11 (2×) and 0.93
same,Putamen R:L ratio,dopamine transporter [2]; [9],1.03 (2×) and 1.02 and 1.04 (2×) and 1.05 (2×) and 0.93 and 1.00 (3×) and 0.98 and 1.06 and 1.07 and 0.99
same,SBR Striatum L,dopamine transporter [2]; [9],3.25 and 2.58 and 3.11 and 2.60 and 2.94 and 1.88 and 4.03 and 2.33 and 3.28 and 2.62 and 2.37 and 2.50 and 4.79 and 3.22 and 3.09
same,SBR Striatum R,dopamine transporter [2]; [9],3.29 and 2.65 and 3.16 and 2.74 and 2.69 and 1.91 and 4.06 and 2.56 and 3.57 and 2.70 and 2.37 and 2.62 and 4.93 and 3.23 and 3.15
same,Striatum R:L ratio,dopamine transporter [2]; [9],1.01 (2×) and 1.03 (3×) and 1.02 (3×) and 1.05 (2×) and 0.92 and 1.10 and 1.09 and 1.00 (2×)
same,SBR,dopamine transporter [3]; eighties age group,about 2.2
same,SBR,dopamine transporter [3]; thirties age group,about 3.2
same,"number of subjects: SBR Abnormal, Clinical Abnormal","dopamine transporter [4]; 104 patients, SBR only",42
same,"number of subjects: SBR Abnormal, Clinical Normal","dopamine transporter [4]; 104 patients, SBR only",2
same,"number of subjects: SBR Normal, Clinical Abnormal","dopamine transporter [4]; 104 patients, SBR only",17
same,"number of subjects: SBR Normal, Clinical Normal","dopamine transporter [4]; 104 patients, SBR only",43
same,accuracy,dopamine transporter [4]; [10],82%
same,sensitivity,dopamine transporter [4]; [10],71%
same,specificity,dopamine transporter [4]; [10],96%
same,"number of subjects: SBR + Asymmetry Abnormal, Clinical Abnormal",dopamine transporter [5]; [11],54
same,"number of subjects: SBR + Asymmetry Abnormal, Clinical Normal",dopamine transporter [5]; [11],11
same,"number of subjects: SBR + Asymmetry Normal, Clinical Abnormal",dopamine transporter [5]; [11],5
same,"number of subjects: SBR + Asymmetry Normal, Clinical Normal",dopamine transporter [5]; [11],34
same,accuracy,dopamine transporter [5]; [12],85%
same,sensitivity,dopamine transporter [5]; [12],92%
same,specificity,dopamine transporter [5]; [12],76%
